The values below come from US10646521B2, “Microbiota composition, as a marker of responsiveness to chemotherapy, and use of microbial modulators (pre-, pro- or synbiotics) for improving the efficacy of a cancer treatment” (INSTITUT GUSTAVE ROUSSY, priority 2013, dated 2020).

Data set [1] relates to lipocalin-2. As to the kind of experiment: ELISA monitoring of lipocalin-2 in feces. The class given is in vivo, mice. Conditions: WT animals treated with NOD agonists. The method, then:
A. Enumeration of bacterial colonies in splenocytes 48 hrs post-CTX therapy in various mouse backgrounds. Splenic cells (left panel) and mesenteric LN (middle panel) harvested from C57BL/6 WT or NOD1^−/−×NOD2^−/− mice were cultured in anaerobic conditions for 48 hours. Bacterial outgrowth was enumerated (number of colonies/plate and frequencies of positive plates/animal (right panel)) and eventually characterized by mass spectrometry for bacterial identification. B. Flow cytometric analyses of pTH17 cells. CD4^+ T cells co-expressing IFN[…]γ in the gate of live IL-17+ T splenocytes in WT versus NOD1 or NOD2 deficient mice C. Idem as in B. but experiment performed in WT animals treated with NOD agonists (MDP and TriDAP) according to the experimental setting aligned in the upper part of the graph. D. ELISA monitoring of lipocalin-2 in the feces of mice according to the experimental setting aligned in C. A representative experiment is shown for A and D. Concatenated data from 2-3 individual experiments including 3 mice/group are depicted in B-C. Anova statistical analyses: *p<0.05, **p<0.01, ***p<0.001.
(In general: ELISA stands for enzyme-linked immunosorbent assay.)

Data set [2] has as its system splenic pTh17 cells. In words: Flow cytometry of splenic pTh17 / TH1 / Tc1 cells. Conditions: for CTX-mediated pTH17 in the spleen: WT animals treated with NOD agonists. In general terms: In flow cytometry, cells or beads pass a laser one at a time.
Description: For cross-linking experiment, 2×10^5 total splenocytes per well (after red cell lysis) were incubated in MaxiSorp plates (Nunc) precoated with anti-CD3ε mAb (145-2C11) (0.5 μg per well; eBioscience) and/or anti-CD28 mAb (37.51) (2 μg/ml; BD). The supernatants were assayed at 48 h by ELISA for mouse IL-17A (eBioscience) and IFNγ (BD). […] For intracellular, cells were incubated for 4 h at 37° C. with 50 ng/ml of PMA, 1 μg/ml of ionomycin and BD Golgi STOP™. After membrane staining, cells were stained with anti-IL-17A, IFNγ, T-bet and RORγt using eBioscience FoxP3/Transcription factor staining buffer set.
Data set [3] deals with small intestine epithelium. Conditions: mouse, in vivo. The procedure: The whole small intestine (duodenum, jejunum and ileum) was removed, cleaned from fecal content and fixed in 4% of PFA for 1 h. Re-hydration of the tissue was performed in 15% sucrose for 1 h and in 30% sucrose overnight. Depending on the experiment, the small intestine was entirely rolled, or cut into small pieces, then embedded in optimum cutting temperature (OCT) compound (Sakura), snap frozen and longitudinal or transversal […] were prepared.
For histological analyses, the longitudinal sections were counterstained with hematoxilin and eosin. For the histological quantitative analyses, inflammatory foci, altered villi and the thickness of lamina propria were scored for each section, while the number of goblet cells was counted for each villus. […] Then, a rabbit polyclonal antibody against the lysozyme protein (1:500 for 1 h, Thermo Scientific) and ALEXA FLUOR 488 Fragment of goat anti-rabbit IgG (1:300 for 1 h, Molecular Probes) were used. All steps were performed at room temperature. Lysozyme-positive areas were quantified on mosaic images using the Histolab software (Microvision Instruments). The quantification of Paneth cells was performed measuring the average area of the Lysozyme-positive clusters (group of Paneth cells) as well as the emission/μm^2 of those clusters (not shown).

Data set [4] has as its system commensal bacteria. The class given is in vivo, mice. Conditions: 48 h after treatment. The procedure:
Mesenteric lymph nodes and spleens were aseptically removed, smashed in PBS and plated onto COS agar plates (BioMérieux), for aerobic and anaerobic growth. After 48 h of culture, single colonies were isolated and stocked in glycerol at −80° C.
(§1) Serial dilutions of feces from naïve mice or tumor bearers treated with NaCl or CTX, vancomycin or broad spectrum antibiotics (ATB) (ampicillin+streptomycin+colistin), were plated onto COS agar plates and after 48 h, single colonies were isolated and Gram staining was performed. The identification of specific bacteria was accomplished through the combination of morphological tests and the analysis through VITEK® automated system (BioMérieux, France) and verified in mass spectrometry (MALDI-TOF, see below) performed at Pasteur Institute, Paris, France.

The subject of data set [5] is splenocytes. As to the kind of experiment: TCR cross-linking of splenocytes, IL-17 and IFNγ ELISA. Type of data set: in vivo, mice.
In data set [6] the test system is MCA205 sarcomas. The class given is in vivo, C57BL/6 mice.
Data set [7] has as its system tumor-infiltrating lymphocytes. In words: Flow cytometry of tumor-infiltrating lymphocytes. Type of data set: in vivo, mice.
For data set [8], the system named is MC38-OVAdim tumor cells. In words: OVA vaccine + CTX, rechallenge with MC38-OVAdim tumor cells. Type of data set: in vivo, C56BL/6 mice. Conditions: antibiotics 20 days, rechallenge at day 50. The procedure: FIG. 38: Anticancer vaccines combined with CTX promote a long lasting anticancer immunity which depends on gut Gram negative bacteria. A. Experimental setting. C56BL/6 mice were treated with broad spectrum ATB (ampicilline, colistine, streptomycine) or vancomycine (which only kills Gram+ bacteria) or colistine (which only kills Gram− bacteria) for 9 days, received one ip, injection of CTX (100 mg/kg), followed 3 days later by vaccination with OVA protein in CpG adjuvants (or mock vaccines). ATB were stopped after 20 days and animals were left untreated under observation for 1 month. At day 50, all mice were rechallenged with a lethal dose of 10× times the MTD of MC38-OVA^dim tumor cells sc. B. Animals were scored on the basis of tumor outgrowth (featuring no or weak memory T cell response). The percentages of tumor-free mice was recorded for 2 experiments comprising 5 mice/group.*Anova test: p<0.05.

Data set [9] concerns fecal commensal bacteria. As to the kind of experiment: Culture of fecal commensals under antibiotics. The class given is in vivo, mice. Conditions: antibiotic in drinking water, tumor bearers. The method, then:
Mice were treated with antibiotics 2-3 weeks before tumor implantation and continued until the end of the experiment. A mix of ampicillin (1 mg/ml)+streptomycin (5 mg/ml)+colistin (1 mg/ml) (Sigma-Aldrich) or vancomycin (0.25 mg/ml) or colistin alone (2·10^3 U/ml) were added in sterile drinking water. Solutions and bottles were changed 2-3 times a week.
as §1

Data set [10] relates to lung adenocarcinoma. In words: Lung adenocarcinoma-bearing KP mice treated with chemotherapy.
Description: Mice were either left untreated or received chemotherapy (d84, d91 and d98) in absence or presence of 0.25 mg/ml vancomycin (mixed into drinking water starting on d77 and until the end of the experiment; antibiotic-containing water was replaced biweekly). Tumor volumes were quantified on d73 and 100 (equivalent of ‘pre’ and ‘post’ chemotherapy) in anesthetized mice by noninvasive imaging as described before (Cortez-Retamozo et al., 2013).

“Also recorded” adds a separate entry of the source. Where a name gives a salt, the structure may show the parent alone.

Regarding `CC(=O)N[C@H]1C(O)O[C@H](CO)[C@@H](O)[C@@H]1O[C@H](C)C(=O)N[C@@H](C)C(=O)N[C@H](CCC(=O)O)C(N)=O` (mixture of isomers) [myramyl dipeptide], the “release of the antimicrobial peptide lipocalin-2 in stools” value in [1] is “promoting the release”. Moreover, the “CTX-mediated pTH17 in the spleen” value in data set [2] is on record as “reducing”.
On the same counts, the results for `C[C@H](N)C(=O)N[C@H](CCC(=O)NC(CCCC(N)C(=O)O)C(=O)O)C(=O)O` (some centres unmarked) [TriDAP] are “promoting the release” and “reducing”.
In the case of `COc1cccc2c1C(=O)c1c(O)c3c(c(O)c1C2=O)C[C@@](O)(C(=O)CO)C[C@@H]3O[C@H]1C[C@H](N)[C@H](O)[C@H](C)O1` [doxorubicin, Doxorubicin hydrochloride], the “inflammatory status of the gut epithelial barrier (histology)” value in data set [3] was “shortening of small intestinal villi, discontinuities of the epithelial barrier, interstitial edema and focal accumulation of mononuclear cells in the lamina propria”. In addition, in [4], the “translocation of commensal bacteria into mesenteric lymph nodes and spleens, compared with CTX” value is recorded as “less so”. In addition, the “polarization of splenic CD4+ T cells towards Th1 and Th17 pattern” value in [5] (day 7 after treatment) is “not found”. In addition, the “dependence of tumor growth reduction on gut commensals” value in data set [6] (SPF, ATB-treated and germ-free mice) is “does not require gut commensals for reducing tumor growth”. The “induction of pTh17 cells in the spleen” value in [2] (Doxo i.p., splenocytes 7 days later) is given as “failed to induce pTh17 cells in the spleen”.
As to `CN[C@H](CC(C)C)C(=O)N[C@H]1C(=O)N[C@@H](CC(N)=O)C(=O)N[C@H]2C(=O)N[C@H]3C(=O)N[C@H](C(=O)N[C@H](C(=O)O)c4cc(O)cc(O)c4-c4cc3ccc4O)[C@H](O)c3ccc(c(Cl)c3)Oc3cc2cc(c3O[C@@H]2O[C@H](CO)[C@@H](O)[C@H](O)[C@H]2O[C@H]2C[C@](C)(N)[C@H](O)[C@H](C)O2)Oc2ccc(cc2Cl)[C@H]1O` [vancomycin], the “effect on CTX-induced Th17 conversion” value in data set [5] (antibiotic in drinking water) is “reduced”. In addition, the “effect on the anti-tumor efficacy of CTX against MCA205 sarcoma” value in data set [6] (3 week conditioning with antibiotic) is reported as “compromised; also recorded: reduced”. Besides, the “frequencies of tumor-infiltrating CD3+ T cells and Th1 cells” value in data set [7] (MCA205 tumors, 8 days post-CTX) is on record as “reduced”. For the same compound, in data set [7] (chemotherapy-treated tumors), the “γδT17 cells in tumor beds post-therapy” value was “devoid”. Besides, the “effect on long term protection of an OVA-based cancer vaccine + CTX against lethal challenge” value in data set [8] is given as “did not prevent”. Also, the “repertoire of commensal bacteria in feces” value in data set [9] is listed as “biased the repertoire of commensal bacteria towards distinct commensal species”. In data set [2] (MCA205 tumor bearers, 7 days after CTX), the “effect on CTX-induced accumulation/differentiation of pTh17 in the spleen” value is given as “prevented; also recorded: blunts”. For the same compound, the “intratumoral CD8+ T effector/Foxp3+ regulatory T cell ratio” value in [10] (Chemo+Vanco) is given as “reduced”. Besides, in data set [10] (vancomycin 0.25 mg/ml in drinking water, oxaliplatin plus CTX), the “effect on the anticancer efficacy of CTX-based chemotherapy” value is reported as “inhibitory role; also recorded: compromised”.
colistin: the “effect on long term protection of an OVA-based cancer vaccine + CTX against lethal challenge” value in data set [8] is “did”. The “repertoire of commensal bacteria in feces” value in data set [9] is given as “promoted the outgrowth of E. faecalis”.
